Experimental data reported in US20240285784A1, “PEPTIDIC CONJUGATES OF SN38 USEFUL IN THE TREATMENT OF CANCER” (FUNDACIÓ INSTITUT DE RECERCA BIOMÈDICA (IRB BARCELONA), priority 2020, published 2024).
Where two headings read alike, the source gives them in different places. *1 amine or outer side, *2 acyl side, *3 side chain or, on linkers, in order; H or OH if unused. Where a SMILES comes first, the peptide text is derived from it. [ ]: non-standard residue; d: D form. The star is where a group is joined. ξ: configuration not given here. X3 = CCc1c2c(nc3ccc(O)cc13)-c1cc3c(c(=O)n1C2)COC(=O)[C@@]3(CC)OC(=O)CCCCn1cc(CCCC(=O)NCCCOCCOCCOCCSCN*)nn1; X2 = CCc1c2c(nc3ccc(O)cc13)-c1cc3c(c(=O)n1C2)COC(=O)[C@@]3(CC)OC(=O)CCC(=O)*; X4 = CC(O)CC(N[*:1])C(=O)[*:2]; Suc = O=C(CCC(=O)[*:2])[*:1]; ξE = NC(CCC(=O)O)C(=O)O; ξN = NC(=O)CC(N)C(=O)O; ξK = NCCCCC(N)C(=O)O; ξT = CC(O)C(N)C(=O)O; ξDap = NCC(N)C(=O)O; ξP = O=C(O)C1CCCN1; ξA = CC(N)C(=O)O

How the values were obtained:
[1] = tested on: diffuse intrinsic pontine glioma HSJD-DIPG-007; experiment: cells; settings: HSJD-DIPG-007, MTS, 72 h incubation
Text: Cancer cell lines were obtained from the repository maintained at Hospital Sant Joan de Deu (Barcelona, Spain). Cancer cell lines used in these experiment included cancer types of adult glioma (U373 and U87 cell lines), pediatric gliomas including diffuse intrinsic pontine glioma (HSJD-DIPG-007, HSJD-DIPG-011), and pediatric high-grade glioma (HSJD-GBM-001), retinoblastoma (HSJD-RBT-5, HSJD-RBT-7 and HSJD-RBT-14), Ewing sarcoma (A673), rhabdomyosarcoma (Rd and RH4) and neuroblastoma (LAN-1 and SK-N-JD cell lines and HSJD-NB-004, HSJD-NB-005 and HSJD-NB-016 patient-derived cell models). […] To add the drugs to the cells in culture, SN38-linker A-MiniAp4 (Ia) and irinotecan were prepared in culture medium from stock solutions at concentration 1 mg/mL in water. SN38 was prepared in culture medium from a stock solution at concentration 1 mg/mL in DMSO. […] Activity curves were built for adult glioma cell lines U87 (FIG. 1) and U373 (FIG. 2), pediatric gliomas including DIPG models HSJD-DIPG-007 (FIG. 3) and HSJD-DIPG-011 (FIG. 4), and pediatric high-grade glioma model HSJD-GBM-001 (FIG. 5), retinoblastoma models HSJD-RBT-5 (FIG. 6), HSJD-RBT-7 (FIG. 7) and HSJD-RBT-14 (FIG. 8), Ewing sarcoma cell line A673 (FIG. 9), rhabdomyosarcoma cell lines Rd (FIG. 10) and RH4 (FIG. 11), neuroblastoma cell lines LAN-1 (FIG. 12) and SK-N-JD (FIG. 13) and neuroblastoma patient-derived cell models HSJD-NB-004 (FIG. 14), HSJD-NB-005 (FIG. 15) and HSJD-NB-016 (FIG. 16). The established IC50 values are in Table 3.
Cancer cell lines used in these experiments were pediatric gliomas including diffuse intrinsic pontine glioma HSJD-DIPG-007, and pediatric high-grade glioma HSJD-GBM-001. […] To add the drugs to the cells in culture, SN38-Linker A-MiniAp4 (Ia) and SN38-Linker B-THRre were prepared in culture medium from stock solutions at concentration 1 mg/mL in water. SN38 was prepared in culture medium from a stock solution at concentration 1 mg/mL in DMSO. […] Activity curves were built for cells HSJD-DIPG-007 (FIG. 20) and HSJD-GBM-001 (FIG. 21).
Cancer cell lines used in these experiments were pediatric gliomas including diffuse intrinsic pontine glioma HSJD-DIPG-007, and pediatric high-grade glioma HSJD-GBM-001. […] All compounds were prepared in culture medium from stock solutions at concentration 1 mg/mL in water. […] Activity curves were built for cells HSJD-DIPG-007 (FIG. 22) and HSJD-GBM-001 (FIG. 23).
Cancer cell line used in these experiment was HSJD-DIPG-007.

[2] = tested on: pediatric high-grade glioma HSJD-GBM-001; experiment: cells; format: cell-based; settings: MTS, 72 h incubation, Example 11, Table 4, read-out: IC50 values of compounds
Text: Cancer cell lines were obtained from the repository maintained at Hospital Sant Joan de Deu (Barcelona, Spain). Cancer cell lines used in these experiment included cancer types of adult glioma (U373 and U87 cell lines), pediatric gliomas including diffuse intrinsic pontine glioma (HSJD-DIPG-007, HSJD-DIPG-011), and pediatric high-grade glioma (HSJD-GBM-001), retinoblastoma (HSJD-RBT-5, HSJD-RBT-7 and HSJD-RBT-14), Ewing sarcoma (A673), rhabdomyosarcoma (Rd and RH4) and neuroblastoma (LAN-1 and SK-N-JD cell lines and HSJD-NB-004, HSJD-NB-005 and HSJD-NB-016 patient-derived cell models). Briefly, between 3000 and 30,000 cancer cells were cultured in 96 well plates and 24 h later the cells were exposed to compound SN38-linker A-MiniAp4 (Ia) (concentration range 1-0.00000001 μM), SN38 (concentration range 1-0.00000001 μM), or irinotecan (concentration range 100-0,000001 μM). To add the drugs to the cells in culture, SN38-linker A-MiniAp4 (Ia) and irinotecan were prepared in culture medium from stock solutions at concentration 1 mg/mL in water. SN38 was prepared in culture medium from a stock solution at concentration 1 mg/mL in DMSO. The tetrazolium compound [3-(4,5-dimethylthiazol-2-yl)-5-(3-carboxymethoxyphenyl)-2-(4-sulfophenyl)-2H-tetrazolium] (MTS assay; Promega, Fitchburg, WI) was used to determine cell viability after 72 h incubation with the drugs. The concentrations of drug required to cause a reduction of 50% in cell proliferation (IC50 and 95% confidence intervals) were calculated with Graphpad Prism 8 software (La Jolla, CA). Activity curves were built for adult glioma cell lines U87 (FIG. 1) and U373 (FIG. 2), pediatric gliomas including DIPG models HSJD-DIPG-007 (FIG. 3) and HSJD-DIPG-011 (FIG. 4), and pediatric high-grade glioma model HSJD-GBM-001 (FIG. 5), retinoblastoma models HSJD-RBT-5 (FIG. 6), HSJD-RBT-7 (FIG. 7) and HSJD-RBT-14 (FIG. 8), Ewing sarcoma cell line A673 (FIG. 9), rhabdomyosarcoma cell lines Rd (FIG. 10) and RH4 (FIG. 11), neuroblastoma cell lines LAN-1 (FIG. 12) and SK-N-JD (FIG. 13) and neuroblastoma patient-derived cell models HSJD-NB-004 (FIG. 14), HSJD-NB-005 (FIG. 15) and HSJD-NB-016 (FIG. 16). The established IC50 values are in Table 3.
The present inventors compared the activity of the new compound SN38 conjugated with MiniAp4 (SN38-linkerA-MiniAp4, example 7 also named G2B-001) and with SN38-linker B-THRre (comparative example 2). Original compound SN38 was used as reference. Cancer cell lines used in these experiments were pediatric gliomas including diffuse intrinsic pontine glioma HSJD-DIPG-007, and pediatric high-grade glioma HSJD-GBM-001. Briefly, 3000 cancer cells were cultured in 96 well plates and 24 h later the cells were exposed to compound compound (Ia) (concentration range 1-0.00000001 μM), SN38-Linker B-THRre (concentration range 1-0.00000001 μM), and SN38 (concentration range 1-0.00000001 μM). To add the drugs to the cells in culture, SN38-Linker A-MiniAp4 (Ia) and SN38-Linker B-THRre were prepared in culture medium from stock solutions at concentration 1 mg/mL in water. SN38 was prepared in culture medium from a stock solution at concentration 1 mg/mL in DMSO. The MTS assay was used to determine cell viability after 72 h incubation with the drugs. The concentrations of drug required to cause a reduction of 50% in cell proliferation (IC50 and 95% confidence intervals) were calculated with Graphpad Prism 8 software (La Jolla, CA). Activity curves were built for cells HSJD-DIPG-007 (FIG. 20) and HSJD-GBM-001 (FIG. 21). The established IC50 values are in Table 4.
Cancer cell lines used in these experiments were pediatric gliomas including diffuse intrinsic pontine glioma HSJD-DIPG-007, and pediatric high-grade glioma HSJD-GBM-001. Briefly, 3000 cancer cells were cultured in 96 well plates and 24 h later the cells were exposed to compounds (Ia), comparative example 1 and comparative example 2 (concentration range 1-0.001 μM for each of them). […]

[3] = Evaluation of solubility in water; format: physicochemical; settings: at 1 mg/mL
Method: 25 mg of SN38-linker A-MiniAp4 were dissolved in H2O, showing a completely transparent solution. This means that SN38-linker A-MiniAp4 has a solubility in water higher than 5 mg/mL, more than 400-fold the solubility in water described for SN38 (Mol. Pharmaceutics, 2016, 13, 379-390).

[4] = Stability in human plasma at 37° C. in vitro; format: in vitro ADME
Method: To assess the stability of the SN38-linker A-MiniAp4 (Ia) (example 7) in human, mouse, dog and rat plasma at 37° C., the compound was prepared at 200 μM in plasma samples in triplicates at each timepoint (0 h, 1 h, 4 h, 8 h and 24 h) for each species. Once the incubation was finalised, plasma proteins were immediately precipitated by adding chilly methanol (ratio 4:1, methanol:plasma) and tubes were shacked for few seconds (vortex). Samples were centrifuged at 3,000 rpm for 30 minutes at 4° C., supernatants were collected, transferred to the injection plate and injected to LC-MS system.
Compound recovery was determined by comparing the analyte response in a biological sample that is spiked with the analyte and processed, with the response in a methanol sample that is spiked with the analyte and processed.
Plasma stability assay was performed using blank plasma from untreated volunteers/animals. K2-EDTA was used as anticoagulant. Human blank plasma used was obtained from Hospital Sant Pau, mouse blank plasma used was obtained from Janvier, dog blank plasma used was obtained from Isoquimen and rat blank plasma used were obtained from Draconis Pharma.
To assess the stability of the G2B-001 lineal (Ib) (example 16) in human plasma at 37° C., the compound was prepared at 200 µM in plasma samples in triplicates at each timepoint (0 h, 0.5 h, 1 h, 2 h, 4 h, 8 h and 24 h). Once the incubation was finalised, plasma proteins were immediately precipitated by adding chilly methanol (ratio 4:1, methanol:plasma) and tubes were shacked for few seconds (vortex). Samples were centrifuged at 3,000 rpm for 30 minutes at 4° C., supernatants were collected, transferred to the injection plate and injected to LC-MS system. Compound recovery was determined by comparing the analyte response in a biological sample that is spiked with the analyte and processed, with the response in a methanol sample that is spiked with the analyte and processed.
Plasma stability assay was performed using blank plasma from untreated volunteers. K2-EDTA was used as anticoagulant. Human blank plasma used was obtained from Hospital Sant Pau.

| SMILES | IC50 ([1]; read-out: IC50 values of compounds, Example 11, Table 4) [nM] | IC50 [2] [nM] | IC50 ([1]; read-out: IC50 values, Example 25, Table 8) [nM] | solubility in water [3] | half-life at 200 μM [4] [h] | recovery at 24 h, 200 μM ([4]; 24 h, read-out: % Recovery after 24 h in human plasma) [%] |
| --- | --- | --- | --- | --- | --- | --- |
| CCc1c2c(nc3ccc(O)cc13)-c1cc3c(c(=O)n1C2)COC(=O)[C@@]3(CC)OC(=O)CCC(=O)N1CCC[C@@H]1C(=O)N[C@H](Cc1c[nH]c2ccccc12)C(=O)N[C@@H](C(=O)N1CCC[C@@H]1C(=O)N[C@H](CO)C(=O)N[C@H](Cc1c[nH]c2ccccc12)C(=O)N[C@H](CCSC)C(=O)N1CCC[C@@H]1C(=O)N1CCC[C@@H]1C(=O)N[C@H](CCCNC(=N)N)C(=O)N[C@H](Cc1c[nH]cn1)C(=O)N[C@@H](C(N)=O)[C@H](C)O)C(C)C [Comparative Example 2, reference compound] (X2-[dP][dW][dV][dP][dS][dW][dM][dP][dP][dR][dH][dT]-NH2; N-terminus and C-terminus assumed) | 104 | 60.6 | – | – | – | – |
| CCc1c2c(nc3ccc(O)cc13)-c1cc3c(c(=O)n1C2)COC(=O)[C@@]3(CC)OC(=O)CCCCn1cc(CCCC(=O)NCCCOCCOCCOCCSCNC(=O)CCC(=O)NC(CN)C(=O)NC(CCCCN)C(=O)NC(C)C(=O)N2CCCC2C(=O)NC(CCC(=O)O)C(=O)NC(C(=O)NC(C)C(=O)NC(CC(C)O)C(=O)NC(CC(N)=O)C(N)=O)C(C)O)nn1 (stereo partly drawn) [G2B-001 lineal (Ib)] ({X3-Suc}-[ξDap][ξK][ξA][ξP][ξE][ξT][ξA][X4][ξN]-NH2) | – | – | 36.8 | good solubility | > 24 | 69.9 |
